Results reported in patent US20250223296A1, “HYDROXYMETHYL AZABICYCLO[2.2.1]HEPTANES AND MEDICAL USES THEREOF” (ATROGI AB, priority 2022, published 2025).
Counter-ions that a name gives are not always drawn.

How the values were obtained:
[1] = test system: L6-myotubes; test: Glucose uptake (3H-2-deoxyglucose) in differentiated L6-myotubes; assay type: cell-based; settings: compound at 10 µM (1×10^−5 M) vs isoproterenol at 10 µM, read-out: Biological example 1: glucose uptake, activity compared to that of isoproterenol
Procedure: L6-myoblasts were grown in Dulbecco's Modified Eagle's Medium (DMEM) containing 1 g/L glucose supplemented with 10% fetal bovine serum, 2 mM L-Glutamine, 50 U/ml penicillin, 50 μg/mL streptomycin and 10 mM HEPES. Cells were plated at 1×10^5 cells per mL in 24-well plates. After reaching 90% confluence the cells were grown in medium containing 2% FBS for 7 days where upon cells differentiated into myotubes. Differentiated L6-myotubes were serum-starved overnight in medium containing 0.5% fatty-acid free BSA and stimulated with an agonist, with a final concentration of 1×10^−5 M. After 1 h 40 min the cells were washed with warm glucose free medium or PBS twice and another portion of agonist was added to the glucose free medium. After 20 min the cells were exposed to 50 nM ^3H-2-deoxyglucose for another 10 min before washed in ice cold glucose free medium or PBS three times and lysed in 400 μL/well 0.2 M NaOH for 1 h at 60° C. The cell lysate was mixed with 4 mL scintillation buffer (Emulsifier Safe, Perkin Elmer) and the radioactivity was detected in a β-counter (Tri-Carb 4810TR, Perkin Elmer). The activity for each compound is compared to that of isoproterenol.

[2] = test system: L6-myotubes; test: Measurement of intracellular cAMP levels in differentiated L6 cells; assay type: cell-based; settings: Rattus norvegicus, L6, 0.25 h, compound at 10 µM (1×10^−5 M), 15 min, vs isoproterenol at 10 µM, read-out: Biological example 2: intracellular cAMP levels, activity compared to that of isoproterenol
Procedure: L6-myoblasts were grown in Dulbecco's Modified Eagle's Medium (DMEM) containing 1 g/L glucose supplemented with 10% fetal bovine serum, 2 mM L-Glutamine, 50 U/ml penicillin, 50 μg/mL streptomycin and 10 mM HEPES. Cells were plated at 1×10^5 cells per mL in 24-well plates. After reaching 90% confluence the cells were grown in medium containing 2% FBS for 7 days where upon cells differentiated into myotubes. Differentiated cells were serum-starved overnight and stimulated with an agonist, final concentration 1×10^−5 M, for 15 min in stimulation buffer (HBSS supplemented with 1% BSA, 5 mM HEPES and 1 mM IBMX, pH 7.4). The medium was aspirated and 100 μL of 95% EtOH was added to each well of the 24-well plate and cells were kept at −20° C. overnight. The EtOH was allowed to evaporate and 500 μL of lysis buffer (1% BSA, 5 mM HEPES and 0.3% Tween-20, pH 7.4) was added to each well. The plate was kept at −80° C. for 30 min and then at −20° C. until the day of detection when the samples were thawed. Intracellular cAMP levels were detected using an alpha screen CAMP kit (6760635D from Perkin Elmer). The activity for each compound is compared to that of isoproterenol.

| Structure (SMILES) | Emax at 10 µM [1] [%] | Emax at 10 µM [2] [%] |
| --- | --- | --- |
| O[C@H](c1cncc(F)c1)C12CCC(C/C=C/c3ccccc3)(CC1)N2 [Example 29, (R)-(4-Cinnamyl-7-azabicyclo[2.2.1]heptan-1-yl)(5-fluoropyridin-3-yl)-methanol] | > 75 | < 25 |
| O[C@@H](c1cncc(F)c1)C12CCC(C/C=C/c3ccccc3)(CC1)N2 [Example 30, (S)-(4-Cinnamyl-7-azabicyclo[2.2.1]heptan-1-yl)(5-fluoropyridin-3-yl)-methanol] | 25 to 50 | < 25 |
| O[C@H](c1cccc(F)c1)C12CCC(C/C=C/c3ccccc3)(CC1)N2 [Example 31, (R)-(4-Cinnamyl-7-azabicyclo[2.2.1]heptan-1-yl)(3-fluorophenyl)methanol] | > 75 | < 25 |
| O[C@@H](c1cccc(F)c1)C12CCC(C/C=C/c3ccccc3)(CC1)N2 [Example 32, (S)-(4-Cinnamyl-7-azabicyclo[2.2.1]heptan-1-yl)(3-fluorophenyl)methanol] | < 25 | < 25 |
| O[C@H](c1cncc(F)c1)C12CCC(CCCc3ccccc3)(CC1)N2 [Example 33, (R)-(5-Fluoropyridin-3-yl)(4-(3-phenylpropyl)-7-azabicyclo[2.2.1]heptan-1-yl)methanol hydrochloride] | 50 to 75 | 25 to 50 |
| O[C@@H](c1cncc(F)c1)C12CCC(CCCc3ccccc3)(CC1)N2 [Example 34, (S)-(5-Fluoropyridin-3-yl)(4-(3-phenylpropyl)-7-azabicyclo[2.2.1]heptan-1-yl)methanol hydrochloride] | 50 to 75 | < 25 |
| O[C@H](c1cccc(F)c1)C12CCC(CCCc3ccccc3)(CC1)N2 [Example 35, (R)-(3-Fluorophenyl)(4-(3-phenylpropyl)-7-azabicyclo[2.2.1]heptan-1-yl)methanol hydrochloride] | > 75 | 25 to 50 |
| O[C@@H](c1cccc(F)c1)C12CCC(CCCc3ccccc3)(CC1)N2 [Example 36, (S)-(3-Fluorophenyl)(4-(3-phenylpropyl)-7-azabicyclo[2.2.1]heptan-1-yl)methanol hydrochloride] | 25 to 50 | < 25 |
| O[C@H](c1cccc(F)c1)C12CCC(CCc3ccc(Cl)cc3)(CC1)N2 [Example 37, (R)-4-(4-Chlorophenethyl)-7-azabicyclo[2.2.1]heptan-1-yl)-(3-fluorophenyl)methanol acetate] | < 25 | < 25 |
| O[C@@H](c1cccc(F)c1)C12CCC(CCc3ccc(Cl)cc3)(CC1)N2 [Example 38, (S)-(4-(4-Chlorophenethyl)-7-azabicyclo[2.2.1]heptan-1-yl)(3-fluoro-phenyl)methanol acetate] | < 25 | < 25 |
| COc1ccc(CCC23CCC([C@H](O)c4cccc(F)c4)(CC2)N3)cc1 [Example 39, (R)-(3-Fluorophenyl)(4-(4-methoxyphenethyl)-7-azabicyclo[2.2.1]heptan-1-yl)methanol acetate] | 50 to 75 | < 25 |
| COc1ccc(CCC23CCC([C@@H](O)c4cccc(F)c4)(CC2)N3)cc1 [Example 40, (S)-(3-Fluorophenyl)(4-(4-methoxyphenethyl)-7-azabicyclo[2.2.1]heptan-1-yl)methanol acetate] | < 25 | < 25 |
| COc1ccc(CCC23CCC([C@H](O)c4cncc(F)c4)(CC2)N3)cc1 [Example 41, (R)-(5-Fluoropyridin-3-yl)(4-(4-methoxyphenethyl)-7-azabicyclo-[2.2.1]heptan-1-yl)methanol dihydrochloride] | 50 to 75 | 25 to 50 |
| COc1ccc(CCC23CCC([C@@H](O)c4cncc(F)c4)(CC2)N3)cc1 [Example 42, (S)-(5-Fluoropyridin-3-yl)(4-(4-methoxyphenethyl)-7-azabicyclo-[2.2.1]heptan-1-yl)methanol dihydrochloride] | < 25 | < 25 |
